The source of these data is US9493423B2, “Compounds capable of inhibiting voltage gated calcium ion channel, and pharmaceutical compositions comprising the same” (KOREA INSTITUTE OF SCIENCE AND TECHNOLOGY, priority 2015, dated 2016).

Format in all cases: cell-based
The target in assay [1] is T1, α1G T-type calcium ion channel (Homo sapiens, UniProt O43497).
T1 construct: host or cells: HEK293 stably expressing α1G and Kir2.1, selected with G-418
Nature of the assay: Antagonistic activity against T-type calcium ion channel, α1G (FDSS6000 screening / whole cell patch clamp in HEK293 cells). The note with it: HEK293 cells expressing α1G. Here is the method: The novel compounds, represented by Chemical Formula 1, of the present invention were assayed for antagonistic activity against T-type calcium ion channels as follows.
After being synthesized, the compounds were primarily screened for inhibitory activity against T-type channels using a high-throughput screening device FDSS6000, and selection was made of the synthetic compounds that blocked T-type channels at an inhibitory rate of 40% or higher. In a secondary screening process, the selected compounds were examined for the effective inhibitory concentration IC50 by measuring Ca^2+ potentials in human HEK293 cells.
Using Titertek Multidrop Plate Dispenser, HEK293 cell line cells that stably expressed alG T-type calcium ion channel and Kir2.1 (α1G cell line: KCTC 10519BP, Korean Human Gene Bank of the Korea Research Institute of Bioscience and Biotechnology) were seeded at a density of 4×10^4 cells/well into 96-well plates that were treated with poly-L-lysine (0.05 mg/ml) 12˜24 hrs before activity screening. On the day of test, the cells adherent to the 96-well plates were washed three times with a HEPES buffer (150 mM NaCl, 5 mM KCl, 1 mM MgCl2, 2 mM CaCl2, 10 mM HEPES, 10 mM glucose, pH 7.4) using a 96-well plate washer (Bio Tek), and then stained with a fluorescent dye by treatment with a HEPES containing 5 μM fluo-3/AM and 0.001% Pluronic F-127 for 1 hr at room temperature. Again, the cells were washed twice with a HEPES buffer. Ten minutes before reading on FDSS6000, the cells were washed once with a HEPES buffer containing 10 mM CaCl2, and the final volume per well was adjusted to 81 μL. Separately from the 96-well plates in which cells were contained, two 96-well plates were prepared so as to contain KCl (final concentration 75 mM), which activates T-type calcium ion channels, and blocker drugs therein. Since most cell-based HTS devices, although provided with a liquid application system necessary for drug infusion, have no liquid absorption systems, blocker drugs to be searched for and KCl were individually prepared into a 5-fold higher concentration in 27 μL of 10 mM CaCl2 HEPES. The concentration was 1/5 diluted into a final volume of 135 μL in each well before measurement. For the FDSS6000 measurements, cells were pre-incubated with drugs for 75 seconds after the 20-sec baseline recordings, and a change in intracellular calcium concentration induced by KCl was measured. The percent inhibition by a test compound was calculated as integrated values of 340/380 fluorescent ratio of untreated and drug-treated cells.
For accurate calcium-imaging, the light source of 4 xenon lamps in FDSS6000 were irradiated to make the cells exposed selectively to the excitation wavelength (340 nm and 380 nm) by computer-controlled filter wheel. Data was obtained at regular intervals of each 1.23 second. The emitter fluorescence light flew in through a long-pass filter was obtained as an average 340/380 ratio value for each well in the 96-wells by using CCD camera and digital fluorescence analyzer in FDSS6000. All image data and analyses were obtained by using FDSS6000-exclusive program provide from Hamamatsu Photonics.
Dulbecco's modified Eagle's medium (DMEM) supplemented with 10% fetal bovine serum (FBS) and 1% penicillin/streptomycin (v/v) was employed. The cells were cultured at 36.5° C. in a humidified condition of 95% air/5% CO2 in an incubator. The medium was refreshed every 3 or 4 days while the cells were sub-cultured every week, with the growth of only α1G T-type calcium ion channel-expressing cells in the presence of G-418 (0.5 mg/mL). The recording to the cells used in the T-type calcium channel activity analysis was conducted 2-7 days after the cells were culturing on a cover slip coated with poly-L-lysine (0.5 mg/mL) when conducting every sub-culture. For analysis at a single cell level, the T-type calcium channel current was measured by an electrophysiological whole cell patch clamp method using EPC-9 amplifier (HEKA, German). […]
On the technique in general: The patch-clamp technique gives a direct electrical read-out from membranes.

Assay [2] concerns HT-1080 (Human Fibroblastoma). Nature of the assay: SRB (sulforhodamine B) assay of cancer cell growth, HT-1080. Also noted: dose or concentration left out as unconfirmed. The settings on record: 48 hrs incubation. The method, then:
(§1) For this assay, the cells at passages were separated from the surfaces of well plates using a trypsin-EDTA solution, and seeded at a density of 5×10^3 cells/well into 96-well plates. After 24 hrs of incubation in a CO2 incubator, the medium was removed. A 4-fold dilution of each of the compounds was added in an amount of 100 μL to each well, and the cells were incubated for 48 hrs. The cells were fixed by adding 100 μL of formalin to each well, washed five times with distilled water, dried at room temperature. The cells in each well were stained with 100 μL of 0.4% SRB for 30 min. at room temperature, washed five times with 1% acetic acid, and dried at room temperature. […] The optical density was read at 540 nm.
(§2) To calculate pharmaceutical efficacy of test compounds in cancer cells, GI50 was calculated according to the following Equation 1 or 2: […]
(§3) (wherein T0 is the number of cells before the addition of a test compound, and T2 is the number of cells after 48 hrs of incubation in the presence of a test compound)
(§4) The inhibition of cancer cell growth by the test compound (% inhibition) was determined by data regression using the Lotus program from the values calculated according to Equation 1, and the IC50 value was calculated from the % inhibition.

In a further assay the test system is U87-MG (Human Glioma). Nature of the assay: SRB (sulforhodamine B) assay of cancer cell growth, U87-MG. Also noted: dose or concentration left out as unconfirmed. The note with it: 48 hrs incubation. The method, then: as §1, §2, §3, §4
Assay [3] has as its system LNCap (Human Prostate Carcinoma). Description: SRB (sulforhodamine B) assay of cancer cell growth, LNCap. Also noted: dose or concentration left out as unconfirmed. The note with it: 48 hrs incubation. Here is the method: as §1, §2, §3, §4
For assay [4], the system named is KYSE410 (Human Esophageal Carcinoma). Description: SRB (sulforhodamine B) assay of cancer cell growth, KYSE410. Also noted: dose or concentration left out as unconfirmed. The settings on record: 48 hrs incubation. The method, then:
as §1, §2, §3, §4

T1 sequence (O43497 whole entry): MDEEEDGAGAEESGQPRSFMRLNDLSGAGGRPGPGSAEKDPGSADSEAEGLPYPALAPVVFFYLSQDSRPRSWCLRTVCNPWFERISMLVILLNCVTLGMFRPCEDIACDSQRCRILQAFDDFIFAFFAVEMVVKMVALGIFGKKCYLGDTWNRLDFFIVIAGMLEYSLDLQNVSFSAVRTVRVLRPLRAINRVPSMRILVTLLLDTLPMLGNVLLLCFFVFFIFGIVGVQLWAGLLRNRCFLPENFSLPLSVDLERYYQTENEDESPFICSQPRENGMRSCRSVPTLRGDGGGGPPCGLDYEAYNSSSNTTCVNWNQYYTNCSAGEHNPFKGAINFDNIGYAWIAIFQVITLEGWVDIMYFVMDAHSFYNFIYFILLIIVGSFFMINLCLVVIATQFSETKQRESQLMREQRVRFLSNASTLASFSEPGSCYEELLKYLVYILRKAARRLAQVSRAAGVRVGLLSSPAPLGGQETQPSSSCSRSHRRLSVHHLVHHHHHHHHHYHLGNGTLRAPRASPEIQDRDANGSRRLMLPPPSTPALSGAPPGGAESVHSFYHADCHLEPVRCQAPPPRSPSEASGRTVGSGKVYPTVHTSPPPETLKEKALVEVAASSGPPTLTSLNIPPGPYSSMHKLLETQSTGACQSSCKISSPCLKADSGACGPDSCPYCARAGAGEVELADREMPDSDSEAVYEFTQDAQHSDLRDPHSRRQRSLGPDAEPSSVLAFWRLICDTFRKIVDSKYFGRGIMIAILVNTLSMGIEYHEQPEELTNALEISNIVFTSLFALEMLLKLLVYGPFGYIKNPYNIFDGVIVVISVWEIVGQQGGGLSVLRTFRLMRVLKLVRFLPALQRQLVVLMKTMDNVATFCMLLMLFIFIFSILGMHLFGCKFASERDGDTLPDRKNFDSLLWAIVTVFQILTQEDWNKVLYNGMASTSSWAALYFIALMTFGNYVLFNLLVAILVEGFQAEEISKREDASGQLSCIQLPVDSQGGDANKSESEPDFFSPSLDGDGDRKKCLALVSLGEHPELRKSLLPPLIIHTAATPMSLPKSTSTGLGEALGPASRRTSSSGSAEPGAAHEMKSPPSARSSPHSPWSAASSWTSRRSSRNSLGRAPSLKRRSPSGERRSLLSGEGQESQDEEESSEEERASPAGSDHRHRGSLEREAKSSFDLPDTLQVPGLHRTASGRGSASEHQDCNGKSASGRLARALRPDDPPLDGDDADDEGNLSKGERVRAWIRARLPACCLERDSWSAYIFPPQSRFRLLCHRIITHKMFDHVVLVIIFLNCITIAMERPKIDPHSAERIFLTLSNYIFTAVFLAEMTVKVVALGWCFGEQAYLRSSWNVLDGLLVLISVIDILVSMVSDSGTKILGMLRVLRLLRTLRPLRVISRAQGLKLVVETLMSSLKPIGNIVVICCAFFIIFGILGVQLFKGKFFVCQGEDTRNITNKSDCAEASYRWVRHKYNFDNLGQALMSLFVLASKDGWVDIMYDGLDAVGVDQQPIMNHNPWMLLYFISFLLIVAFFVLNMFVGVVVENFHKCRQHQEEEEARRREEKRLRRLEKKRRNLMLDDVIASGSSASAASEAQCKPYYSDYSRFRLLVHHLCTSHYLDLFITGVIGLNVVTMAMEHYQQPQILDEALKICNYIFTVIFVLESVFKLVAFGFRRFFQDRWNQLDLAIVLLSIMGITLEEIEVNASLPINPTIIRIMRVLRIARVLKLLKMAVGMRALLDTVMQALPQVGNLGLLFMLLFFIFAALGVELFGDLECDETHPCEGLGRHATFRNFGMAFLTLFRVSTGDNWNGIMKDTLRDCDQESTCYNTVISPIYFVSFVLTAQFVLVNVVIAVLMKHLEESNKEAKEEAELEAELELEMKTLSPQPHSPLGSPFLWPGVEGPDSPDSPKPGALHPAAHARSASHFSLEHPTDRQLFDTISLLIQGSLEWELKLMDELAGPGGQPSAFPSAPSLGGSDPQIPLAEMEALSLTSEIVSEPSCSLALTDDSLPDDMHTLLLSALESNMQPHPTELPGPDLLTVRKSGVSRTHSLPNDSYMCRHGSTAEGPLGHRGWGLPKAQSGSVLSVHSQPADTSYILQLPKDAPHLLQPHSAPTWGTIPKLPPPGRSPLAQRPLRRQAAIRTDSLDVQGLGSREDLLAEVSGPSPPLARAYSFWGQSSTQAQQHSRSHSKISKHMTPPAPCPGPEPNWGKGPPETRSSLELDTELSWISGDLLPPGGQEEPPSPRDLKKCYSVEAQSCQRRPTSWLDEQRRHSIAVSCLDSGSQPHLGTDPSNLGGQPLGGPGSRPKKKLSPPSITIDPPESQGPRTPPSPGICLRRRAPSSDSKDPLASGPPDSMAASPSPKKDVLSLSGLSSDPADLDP

In the case of `CC(C)Cc1cc(CNS(=O)(=O)c2ccccc2)nn1-c1ccccc1` [Compound 1, N-[(5-Isobutyl-1-phenyl-1H-pyrazol-3-yl)methyl]benzenesulfonamide], the inhibition – broadly, the relative decrease from the control value, in per cent – at 10 µM in assay [1] is 61.4%.
As to `CC(C)Cc1cc(CNS(=O)(=O)c2cccc(F)c2)nn1-c1ccccc1` [Compound 2, N-[(5-Isobutyl-1-phenyl-1H-pyrazol-3-yl)methyl]-3-fluorobenzenesulfonamide], the inhibition at 10 µM in assay [1] came out at 64.1%.
Still for that read-out and setting: then `CC(C)Cc1cc(CNS(=O)(=O)c2cccc(Cl)c2)nn1-c1ccccc1` [Compound 3, N-[(5-Isobutyl-1-phenyl-1H-pyrazol-3-yl)methyl]-3-chlorobenzenesulfonamide], with 57.6%.
Same read-out and setting: the value for `Cc1ccc(S(=O)(=O)NCc2cc(CC(C)C)n(-c3ccccc3)n2)cc1` [Compound 4, N-[(5-Isobutyl-1-phenyl-1H-pyrazol-3-yl)methyl]-4-methylbenzenesulfonamide] was 57.3%; that for `CC(C)Cc1cc(CNS(=O)(=O)Cc2ccccc2)nn1-c1ccccc1` [Compound 7, N-[(5-Isobutyl-1-phenyl-1H-pyrazol-3-yl)methyl]benzylsulfonamide] was 65.7%; that for `CC(C)Cc1cc(CNS(=O)(=O)c2cccc3cccnc23)nn1-c1ccccc1` [Compound 10, N-[(5-Isobutyl-1-phenyl-1H-pyrazol-3-yl)methyl]quinoline-8-sulfonamide] was 29.8%.
`Cc1ccc(F)c(S(=O)(=O)NCc2cc(CC(C)C)n(-c3ccccc3)n2)c1` [Compound 11, N-[(5-Isobutyl-1-phenyl-1H-pyrazol-3-yl)methyl]-(2-fluoro-5-methyl)benzenesulfonamide]: the “Inhibition % α1G (10 μM)” value in assay [1] stood at 54.86%. In assay [2], the “Inhibition % for Cancer Cell HT1080” value amounted to 57.56%. In addition, the “Inhibition % for Cancer Cell U87-MG” value in the assay on U87-MG (Human Glioma) was 34.40%. Moreover, the “Inhibition % for Cancer Cell LNCap” value in assay [3] came out at 71.41%. Moreover, the “Inhibition % for Cancer Cell KYSE410” value in assay [4] stood at 47.30%.
Regarding `CC(C)Cc1cc(CNS(=O)(=O)c2c(F)cccc2F)nn1-c1ccccc1` [Compound 13, N-[(5-Isobutyl-1-phenyl-1H-pyrazol-3-yl)methyl]-2,6-difluorobenzenesulfonamide], in assay [1], the inhibition at 10 µM came out at 45.1%.
For the compound `Cc1c(CNS(=O)(=O)c2ccccc2)nn(-c2ccccc2)c1CC(C)C` [Compound 15, N-[(5-Isobutyl-4-methyl-1-phenyl-1H-pyrazol-3-yl)methyl]benzenesulfonamide], the inhibition at 10 µM in assay [1] came to 70.5%.
On the same count and under the same terms, the value for `Cc1c(CNS(=O)(=O)c2ccc3ccccc3c2)nn(-c2ccccc2)c1CC(C)C` [Compound 16, N-[(5-Isobutyl-4-methyl-1-phenyl-1H-pyrazol-3-yl)methyl]naphthalene-2-sulfonamide] was 74.2%; that for `CC(C)Cc1cc(CNS(=O)(=O)c2ccccc2)nn1-c1ccc(F)cc1` [Compound 20, N-[(5-Isobutyl-1-(4-fluorophenyl)-1H-pyrazol-3-yl)methyl]benzenesulfonamide] was 45.6%.
On the same count and under the same terms, then `CC(C)Cc1cc(CN2Cc3ccccc3S2(=O)=O)nn1-c1ccccc1` [Compound 28, 2-((5-Isobutyl-1-phenyl-1H-pyrazol-3-yl)methyl)-2,3-dihydrobenzo[d]isothiazole-1,1-dioxide], with 67.9%.
In the case of `CC(C)Cc1cc(CN2Cc3ccccc3S2(=O)=O)nn1C(C)(C)C` [Compound 29, 2-[{1-(tert-Butyl)-5-isobutyl-1H-pyrazol-3-yl}methyl]-2,3-dihydro[d]isothiazole 1,1-dioxide], the “Inhibition % α1G (10 μM)” value in assay [1] came out at 60.62%.
Still for that read-out and setting: the value for `CC(C)Cc1cc(CN2Cc3ccccc3S2(=O)=O)nn1-c1ccc(F)cc1` [Compound 30, 2-[{1-(4-Fluorophenyl)-5-isobutyl-1H-pyrazol-3-yl}methyl]-2,3-dihydro[d]isothiazole 1,1-dioxide] was 70.81%; that for `CC(C)(C)n1nc(CN2Cc3ccccc3S2(=O)=O)cc1-c1ccc(C2CCCCC2)cc1` [Compound 36, 2-[{1-(tert-Butyl)-5-(4-cyclohexylphenyl)-1H-pyrazol-3-yl}methyl]-2,3-dihydro[d]isothiazole 1,1-dioxide] was 45.62%.
